In patent publication US20240360145A1, “PYRIMIDINE-2,4-DIAMINE DERIVATIVES AS WELL AS PREPARATION METHOD THEREFOR AND USE THEREOF” (LISEN THERAPEUTICS, INC., priority 2022, published 2024):

Experiments:
NCI-H1792 cells = test: Cell viability IC50 (MTT), AMG510-resistant NCI-H1792 cells; assay type: cell-based; conditions: Homo sapiens, NCI-H1792 cells (KRAS G12C)
Protocol: Non-small cell lung cancer cell lines NCI-H1975, NCI-H1650, and NCI-H1792 were cultured in RPMI-1640 medium containing 10% fetal bovine serum and 1% penicillin-streptomycin. 1% sodium pyruvate was additionally added when culturing NCI-H1975 cells. All the cells were cultured in a constant temperature incubator containing 5% CO2 at 37° C.
(1) The cells were cultured to the logarithmic growth phase. When the confluence reached about 90%, the cells were digested with 0.25% trypsin, and complete medium was added to collect the cells. After centrifugation at room temperature, the supernatant was discarded, and the cell precipitate was resuspended with fresh complete medium. […]
(5) The medium was carefully aspirated off, 100 μl of DMSO was added to dissolve the precipitate formed by the reaction with MTT, shaking and mixing to mix the blue-violet crystals well, and the light absorbance value at 492 nm was read with a microplate reader.
(6) IC50 of the compounds for different cells was calculated based on the light absorption value of each group. Specifically, the absorbance value under treatment with different concentrations of compounds was first subtracted from the absorbance value of the blank well, and then the absorbance value of the 0 μM group was taken as 100% to calculate the cell survival rate after treatment with different concentrations of compounds. […]

PE062 primary cells = test: Cell viability IC50 (CCK-8), primary cells PE062 from small cell lung cancer pleural effusion; assay type: cell-based; conditions: PE062, CCK-8
Protocol: (§1) (1) The pleural effusion was poured into a 15 mL or 50 mL of sterilized centrifuge tube for centrifugation. Centrifugation conditions: 800 to 1000 rpm, 5 min.
(§2) (2) The precipitate was resuspended and washed for 2 to 3 times with PBS.
(§3) (3) The cell precipitate was resuspended with complete culture medium (α-MEM medium containing 10% fetal bovine serum and 2% penicillin-streptomycin), and the flocculent matter in the pleural effusion was removed using a sterilized cell sieve.
(§4) (4) The red blood cells in the pleural effusion were removed with lymphocyte separation fluid, and the tumor cells and lymphocyte components were collected. The number of tumor cells was observed under a microscope, and the cells were inoculated.
(§5) (5) After 24 hours, the supernatant was discarded, and fresh culture medium was added for further culture.
(§6) (6) The cell growth status was observed, and it was determined based on the cell status whether the medium was required to be continuously changed to remove blood cells. When the cells grew to a density of 80% to 90%, the cells were preserved.
(§7) (1) Primary cells from lung cancer pleural effusion within 5 generations were cultured to the logarithmic growth phase. […] After centrifugation at room temperature, the supernatant was discarded, and the cell precipitate was resuspended with fresh complete culture medium. After counting, the cells were placed at room temperature for later use. The cells were inoculated into a 384-well plate at a density of 2000 cells/well with a volume of 40 μl/well. The wells at the outermost circle of the plate were not inoculated with cells, and instead, added with sterile water to reduce evaporation of the culture medium.
(§8) (2) After overnight culture of the cells, the medium was discarded, and a fresh medium containing different concentrations of compounds was added at 200 μl/well. The dilution method of the compound was as follows: first the compound with the highest concentration of 10 μM was prepared, and then the compound was diluted for 3 times in sequence. […] At the same time, a blank control group was set up, in which only an equal volume of culture medium was added without adding cells. Five replicate wells were set up for each group. The cells were placed in the incubator for further culture.
(§9) (3) After 72 hours, 8 μl of CCK-8 solution, which was double-diluted with 10 mM PBS, was added to each well, and the cells were shaken and placed in an incubator at 37° C. for further culture for 2 hours.
(§10) (4) The light absorbance value at 450 nm was read using a microplate reader, and the IC50 was calculated according to the absorbance value. The calculation method was the same as above.
(§11) (1) Sample information: PE039, PE052, and PE062 were all primary cell samples from pleural effusion of patients with small cell lung cancer, and LT015 was a primary cell sample from bronchoscopic biopsy of a patient with small cell lung cancer.
(§12) (2) CCK-8 detection was used to detect the IC50 values of different medicaments (compounds).

PE052 primary cells = test: Cell viability IC50 (CCK-8), primary cells PE052 from small cell lung cancer pleural effusion; assay type: cell-based; conditions: PE052, CCK-8
Protocol: as §1, §2, §3, §4, §5, §6, §7, §8, §9, §10, §11, §12

NCI-H446 cells = test: Cell viability IC50 (CCK-8), small cell lung cancer cell line H446; assay type: cell-based; conditions: H446, CCK-8
Protocol: (§13) Small cell lung cancer cell lines DMS114, NCI-H1688, NCI-H82, NCI-H146, and NCI-H446 cells were cultured in RPMI-1640 medium containing 10% fetal bovine serum and 1% penicillin-streptomycin. All the cells were cultured in a constant temperature incubator containing 5% CO2 at 37° C.
(§14) Small cell lung cancer is a highly heterogeneous malignant tumor, and its clinical treatment is mainly based on traditional chemotherapy (mainly platinum medicaments and etoposide). In order to study the anti-tumor activity of the compounds of the present disclosure in small cell lung cancer, the CCK-8 method was used to investigate the cell viability IC50 of compound 8 for five small cell lung cancer cell lines.

LT015 primary cells = test: Cell viability IC50 (CCK-8), primary cells LT015 from small cell lung cancer bronchoscopic biopsy; assay type: cell-based; conditions: LT015, CCK-8
Protocol: (1) The tissue blocks obtained from the tumor patients were transferred from the preservation solution to the pre-cooled HBSS buffer containing antibiotics, and the tissue blocks were washed for three times with the pre-cooled HBSS buffer.
(2) Tissue was sheared on ice with sterile surgical instruments until no obvious tissue blocks are visible to the naked eye, the tissue fluid was collected into a 15 ml centrifuge tube, and this process takes about 5 to 10 minutes.
(3) Digestive enzymes (collagenase I, collagenase IV and neutral protease being mixed in a ratio of 1:1:1, a concentration of stock solution was 10 mg/ml, diluted with PBS buffer or HBSS buffer, and the use concentration was 1 mg/ml) were added to the centrifuge tube, and after mixing well by pipetting, the centrifuge tube was placed in a 37° C. constant temperature incubator for 1 to 2 hours.
(4) High-glucose medium was added to the centrifuge tube to stop digestion. After mixing well, the cell precipitate was collected by centrifugation, and resuspended with MBM medium (Advanced DMEM-F12+20 ng/ml bFGF+50 ng/ml EGF+1% ITS-X+2% B27+10 μMY-27632+1% PS). The cell suspension was placed in a Matrigel-coated 24-well plate and cultured for 5 to 7 days. When the cell density in the well plate reaches 80-90%, the cells were sub-cultured into a 6 cm cell culture dish, and when they grew to a density of 80% to 90%, the cells were cryopreserved for preservation.
(1) Primary cells from lung cancer pleural effusion within 5 generations were cultured to the logarithmic growth phase. When the confluence reached about 90%, the cells were digested with 0.25% trypsin, and complete culture medium was added to collect the cells. After centrifugation at room temperature, the supernatant was discarded, and the cell precipitate was resuspended with fresh complete culture medium. After counting, the cells were placed at room temperature for later use. The cells were inoculated into a 384-well plate at a density of 2000 cells/well with a volume of 40 μl/well. The wells at the outermost circle of the plate were not inoculated with cells, and instead, added with sterile water to reduce evaporation of the culture medium.
as §8, §9, §10, §11, §12

PE039 primary cells = test: Cell viability IC50 (CCK-8), primary cells PE039 from small cell lung cancer pleural effusion; assay type: cell-based; conditions: PE039, CCK-8
Protocol: as §1, §2, §3, §4, §5, §6, §7, §8, §9
(4) The light absorbance value at 450 nm was read using a microplate reader, and the IC50 was calculated according to the absorbance value. The calculation method was the same as above. […]

NCI-H1688 cells = test: Cell viability IC50 (CCK-8), small cell lung cancer cell line H1688; assay type: cell-based; conditions: H1688, CCK-8
Protocol: as §13, §14

DMS114 cells = test: Cell viability IC50 (CCK-8), small cell lung cancer cell line DMS114; assay type: cell-based; conditions: DMS114, CCK-8
Protocol: as §13, §14

NCI-H146 cells = test: Cell viability IC50 (CCK-8), small cell lung cancer cell line H146; assay type: cell-based; conditions: H146, CCK-8
Protocol: as §13, §14

PE043 primary cells = test: Cell viability IC50 (CCK-8), primary cells PE043 from lung adenocarcinoma pleural effusion resistant to EGFR-TKI; conditions: read-out: cell viability IC50; PE043, CCK-8
NCI-H82 cells = test: Cell viability IC50 (CCK-8), small cell lung cancer cell line H82; assay type: cell-based; conditions: H82, CCK-8
Protocol: as §13, §14

[1] = system: small cell lung cancer cell line H446 cells; test: In vivo antitumor effect in mice bearing small cell lung cancer cell line H446 cells (CDX model)
Protocol: H446 cells in the logarithmic growth phase were suspended in PBS solution, and then inoculated subcutaneously in the right forelimb of nude mice. The cell density was about 2×10^8 cells/mL, and each mouse was inoculated with 0.1 mL of the cell suspension, for a total of 80 mice. When the subcutaneous tumor grew to range from 50 mm^3 to 100 mm^3, 40 tumor-bearing mice were randomly divided into groups and numbered, and drug administration began.
(1) Vehicle blank control group: 5% DMSO+20% PEG 300+75% saline (normal saline);
The cycle repeated twice, and no medication for the final 6 days.
All tumor-bearing mice were killed after 20 days.

Compound C=CC(=O)N1CCN(c2nc(=O)n(-c3c(C)ccnc3C(C)C)c3nc(-c4c(O)cccc4F)c(F)cc23)[C@@H](C)C1 [AMG510] has an IC50 (NCI-H1792 cells) of over 10000 nM, an IC50 (PE062 primary cells) of over 10000 nM and an IC50 (PE052 primary cells) of over 10000 nM.

In the case of N.N.[Cl][Pt][Cl] [Cisplatin], the IC50 (NCI-H446 cells) is reported as 559 nM, the IC50 (LT015 primary cells) is reported as 5460 nM and the IC50 (PE039 primary cells) is reported as 11100 nM. The IC50 (NCI-H1688 cells) was 14100 nM, the IC50 (DMS114 cells) was 2150 nM and the IC50 (PE062 primary cells) was 3210 nM. For the same compound, the IC50 (PE052 primary cells) was 885 nM, the IC50 (NCI-H146 cells) was 3890 nM and the IC50 (PE043 primary cells) was 31000 nM. The IC50 (NCI-H82 cells) was 1760 nM.

For CN1CCN(Cc2ccc(Nc3ncc(Cl)c(Nc4ccccc4S(=O)(=O)N(C)C)n3)cc2)CC1 [TP-0903], the IC50 (NCI-H446 cells; Homo sapiens, NCI-H446) was 276 nM, the IC50 (LT015 primary cells) was 94.3 nM and the IC50 (PE039 primary cells) was 134 nM. For the same compound, the IC50 (NCI-H1688 cells; NCI-H1688) was 534 nM, the IC50 (DMS114 cells; Homo sapiens, DMS-114) was 95.1 nM and the IC50 (PE062 primary cells) was 5.1 nM. It also gave an IC50 (PE052 primary cells) of 210 nM, an IC50 (NCI-H146 cells; Homo sapiens, NCI-H146) of 1540 nM and an IC50 (NCI-H82 cells; Homo sapiens, NCI-H82) of 35 nM. For the same compound, the “inhibitory effect on tumor volume growth compared with blank control (FIG. 1)” value ([1]; H446 CDX nude mice, intraperitoneal injection, 20 days) was “no significant inhibitory effect on tumor volume growth”, the animals survived ([1]; H446 CDX nude mice, intraperitoneal injection, 20 days, compound 8 and TP-0903 15 mg/kg once a day for 13 days, Cisplatin 2.5 mg/kg + Etoposide 4 mg/kg cycles) was 11 of 12 and the “body weight changes of nude mice (FIG. 2)” value ([1]; during the drug administration period, recovered rapidly after drug withdrawal) was “no significant decrease in body weight”.
